Measured values: patent US20260117071A1, “ICG LIPID DERIVATIVE, AND LIPID MICROPARTICLES EACH CONTAINING SAME” (Eisai R&D Management Co., Ltd., priority 2022, published 2026)

Assay: Calculation of the molar extinction coefficient (absorption spectrum in ethanol)
Type: physicochemical
Settings: absorbance at 790 nm, 5 μM in ethanol, optical path length 1 cm
Method: An ICG lipid solution, prepared by the dissolution of the particular ICG lipid derivative or ICG in ethanol to provide 5 μM in each case, was introduced into a cuvette with an optical path length of 1 cm, and the absorption spectrum at 230 to 1000 nm was measured using an Infinite M200 (Tecan). The absorption spectra in FIG. 5 were provided by subtracting the absorption spectra of ethanol from the absorbance at each wavelength.
The molar concentration used in the calculation of the molar extinction coefficient was itself calculated using a purity of 100% for the ICG lipid derivative and using the nonsalt form.

| Structure (SMILES) | molar extinction coefficient ε [L/mol/cm] |
| --- | --- |
| CC1(C)C(/C=C/C=C/C=C/C=C2/N(CCCCS(=O)(=O)[O-])c3ccc4ccccc4c3C2(C)C)=[N+](CCCCS(=O)(=O)[O-])c2ccc3ccccc3c21.[Na+] [ICG, Indocyanine green, reference compound] | 208980 |
| CCCCCCCCCCCCCCCCCC(=O)OCC(COP(=O)([O-])OCCNC(=O)CC[N+]1=C(/C=C/C=C/C=C/C=C2/N(CCC(=O)NCCOP(=O)(O)OCC(COC(=O)CCCCCCCCCCCCCCCCC)OC(=O)CCCCCCCCCCCCCCCCC)c3ccc4ccccc4c3C2(C)C)C(C)(C)c2c1ccc1ccccc21)OC(=O)CCCCCCCCCCCCCCCCC (centres unmarked) [ICG-diDSPE, 2-(3-(2-((1E,3E,5E,7E)-7-(3-(3-((2-(((2,3-bis(stearoyloxy)propoxy)(hydroxy)phosphoryl)oxy)ethyl)amino)-3-oxopropyl)-1,1-dimethyl-1,3-dihydro-2H-benzo[e]indol-2-ylidene)hepta-1,3,5-trien-1-yl)-1,1-dimethyl-1H-benzo[e]indol-3-ium-3-yl)propanamide)ethyl (2,3-bis(stearoyloxy)propyl) phosphate] | 199840 |

Next, values leading:

| molar extinction coefficient ε [L/mol/cm] | Structure (SMILES) |
| --- | --- |
| 165860 | CCCCCCCC/C=C\CCCCCCCC(=O)OCC(COP(=O)(O)OCCNC(=O)CCN1/C(=C/C=C/C=C/C=C/C2=[N+](CCCCS(=O)(=O)[O-])c3ccc4ccccc4c3C2(C)C)C(C)(C)c2c1ccc1ccccc21)OC(=O)CCCCCCC/C=C\CCCCCCCC (centres unmarked) [ICG-DOPE, 4-(2-((1E,3E,5E,7E)-7-(3-(3-((2-(((2,3-bis(oleoyloxy)propoxy)oxidophosphoryl)oxy)ethyl)amino)-3-oxopropyl)-1,1-dimethyl-1,3-dihyro-2H-benzo[e]indol-2-ylidene)hepta-1,3,5-trien-1-yl)-1,1-dimethyl-1H-benzo[e]indol-3-ium-3-yl)butane-1-sulfonate, reference compound] |
| 161100 | CCCCCCCC/C=C\CCCCCCCC(=O)OCC(COP(=O)([O-])OCCNC(=O)CC[N+]1=C(/C=C/C=C/C=C/C=C2/N(CCC(=O)NCCOP(=O)(O)OCC(COC(=O)CCCCCCC/C=C\CCCCCCCC)OC(=O)CCCCCCC/C=C\CCCCCCCC)c3ccc4ccccc4c3C2(C)C)C(C)(C)c2c1ccc1ccccc21)OC(=O)CCCCCCC/C=C\CCCCCCCC (centres unmarked) [ICG-diDOPE, 2-(3-(2-((1E,3E,5E,7E)-7-(3-(3-((2-(((2,3-bis(oleoyloxy)propoxy)(hydroxy)phosphoryl)oxy)ethyl)amino)-3-oxopropyl)-1,1-dimethyl-1,3-dihydro-2H-benzo[e]indol-2-ylidene)hepta-1,3,5-trien-1-yl)-1,1-dimethyl-1H-benzo[e]indol-3-ium-3-yl)propanamide)ethyl(2,3-bis(oleoyloxy)propyl) phosphate] |
| 177760 | CCCCCCCCCCCCCCCCCCNC(=O)CCN1/C(=C/C=C/C=C/C=C/C2=[N+](CCC(=O)NCCCCCCCCCCCCCCCCCC)c3ccc4ccccc4c3C2(C)C)C(C)(C)c2c1ccc1ccccc21 [ICG-diSA, 2-((1E,3E,5E,7E)-7-(1,1-dimethyl-3-(3-(octadecylamino)-3-oxopropyl)-1,3-dihydro-2H-benzo[e]indol-2-ylidene)hepta-1,3,5-trien-1-yl)-1,1-dimethyl-3-(3-(octadecylamino)-3-oxopropyl)-1H-benzo[e]indol-3-ium] |
